From patent US7858637B2, “Administration of TLR7 ligands and prodrugs thereof for treatment of infection by hepatitis C virus” (priority 2003, dated 2010)
Where two headings read alike, the source gives them in different places.

What was measured:
[1] = system: human peripheral blood mononuclear cells (PBMC); test: PBMC assay of interferon alpha release (masking); assay type: cell-based
Protocol: A typical experiment would use human peripheral blood mononuclear cells (PBMC) isolated from a healthy donor and placed in replicate cell culture wells; typically, 2×10^6 to 5×10^6 cells are placed in each well. The PBMC are incubated in the absence of test compounds at 37° C. in a humidified atmosphere containing 5% CO2 for 24 hours to allow stabilization to the culture conditions, and then 100 micromolar isatoribine, the TLR7 ligand and a corresponding TLR7 ligand prodrug are added to separate wells containing PBMC from the same donor; untreated controls are included. The concentrations of TLR7 ligand and TLR7 ligand prodrug may be varied to suit the particular experiment, and the PBMC cultures are then incubated at 37° C. in a humidified atmosphere containing 5% CO2 for a period of time ranging from two hours to 48 hours. Samples of cell culture supernate media are taken during the incubation. These are assayed for cytokine production by ELISA. Additionally the amount of TLR7 ligand and TLR7 ligand prodrug remaining at the end of the incubation may be assayed by LC-MS. Cytokine production is calculated relative to production in the isatoribine control, following subtraction of the cytokine production in untreated controls.
Thus, if the TLR7 ligand generates more interferon alpha (a conveniently measured cytokine) than does the corresponding TLR7 ligand prodrug after a similar duration of exposure and concentration, the TLR7 ligand prodrug may be deemed a “masked” TLR7 ligand prodrug.

HCV replicon = test: HCV replicon-based viral bioassay with supernatants of compound-treated PBMC; assay type: cell-based, hepatitis C virus
Protocol: A quantitative assay was developed which is based on measuring the activity of the luciferase reporter gene that was integrated into an HCV replicon. By using this system, interferons from TLR7 agonist-treated PBMCs were measured and their inhibitory activity was assessed using the luciferase reporter replicon.
Human PBMCs isolated from a healthy donor were placed in replicate cell culture wells (5×10^6 cells per well). The PBMCs are incubated in the absence of test compounds at 37° C. in a humidified atmosphere containing 5% CO2 for 24 hours to allow stabilization to the culture conditions, and then the TLR7 ligand or a drug free control is added to replicate wells containing PBMCs from the same donor. The concentrations of TLR7 ligand may be varied to suit the particular experiment, and the PBMC cultures are then incubated at 37° C. in a humidified atmosphere containing 5% CO2 for eight hours. Samples of cell culture supernatant are taken at the eight hour time point (or twenty four hour time point in case of Loxoribine and its prodrugs) from TLR7 ligand treated and control wells and are assayed for interferon-alpha production by ELISA. Supernatants from compound-treated cells and a no-drug control were diluted at 1:10, 1:100, and 1:1000 in RPMI media and applied to a 96-well plate of Huh7 hepatocyte cells containing the luciferase reporter replicon. Cells were incubated for 48 hours at 37° C. in a tissue culture incubator.
After the incubation period, the 96-well plates are washed 2× with PBS and are lysed with passive lysis buffer (Promega). Plates are shaken at room temperature for 20 minutes and standard luciferase assay reagent (Promega) is added to each well by injection and the plate is read on an Lmax luminometer (Molecular Devices).
A supernatant collected from PBMC cells non-exposed to the compound and diluted as specified in the first column was used as a control (“Blank supernatant”). The PBMC cells were isolated from a single blood donor as specified.

[2] = Homo sapiens, PBMC, Table 10, 100 μM, 24 hours exposure, read-out: Amount of INFa relative to that induced by isatoribine at 100 μM
[3] = Homo sapiens, PBMC, Table 11, 100 μM, 24 hours exposure, read-out: Amount of INFa relative to that induced by isatoribine at 100 μM
[4] = Homo sapiens, PBMC, Table 13, 100 μM, 24 hours exposure, read-out: Amount of INFa relative to that induced by isatoribine at 100 μM
[5] = Homo sapiens, PBMC, Table 14, 24 hours exposure, read-out: Amount of INFa relative to that induced by isatoribine at 100 μM
[6] = Homo sapiens, PBMC, Table 9, 100 μM, 24 hours exposure, same blood donor, read-out: Amount of INFa relative to that induced by isatoribine at 100 μM

With `C=CCn1c(=O)n([C@@H]2O[C@H](CO)[C@@H](O)[C@H]2O)c2nc(N)[nH]c(=O)c21` [Compound 17, 7-allyl-2-amino-9-β-D-ribofuranosyl-7,9-dihydro-1H-purine-6,8-dione] the Emax at 100 µM [1, 2] was 50%, the HCV replicon inhibition (HCV replicon; Table 4 No. 1, PBMC exposed 24 hours to 100 μM, donor FL75864, supernatant dilution 1:10) was 100% and the HCV replicon inhibition (HCV replicon; Table 4 No. 1, PBMC exposed 24 hours to 100 μM, donor FL75864, supernatant dilution 1:100) was 74%. The HCV replicon inhibition (HCV replicon; Table 4 No. 1, PBMC exposed 24 hours to 100 μM, donor FL75864, supernatant dilution 1:1000) was 17%.
In the case of `CC(C)Cn1cnc2c(N)nc3ccccc3c21` [Compound 31, 1-Isobutyl-1H-imidazo[4,5-c]quinolin-4-ylamine], the Emax at 100 µM ([1]; Homo sapiens, PBMC, 24 h, read-out: Amount of INFa relative to that induced by isatoribine at 100 μM) is reported as 60 to 76%, the HCV replicon inhibition (HCV replicon; Table 5 No. 1, PBMC exposed 8 hours to 3.2 μM, donor FL75287, supernatant dilution 1:10) is reported as 100% and the HCV replicon inhibition (HCV replicon; Table 5 No. 1, PBMC exposed 8 hours to 3.2 μM, donor FL75287, supernatant dilution 1:100) is reported as 100%. It also gave an HCV replicon inhibition (HCV replicon; Table 5 No. 1, PBMC exposed 8 hours to 3.2 μM, donor FL75287, supernatant dilution 1:1000) of 89%, an HCV replicon inhibition (HCV replicon; Table 5 No. 2, PBMC exposed 8 hours to 3.2 μM, donor FL75287, supernatant dilution 1:10) of 100% and an HCV replicon inhibition (HCV replicon; Table 5 No. 2, PBMC exposed 8 hours to 3.2 μM, donor FL75287, supernatant dilution 1:100) of 75%. The HCV replicon inhibition (HCV replicon; Table 5 No. 2, PBMC exposed 8 hours to 3.2 μM, donor FL75287, supernatant dilution 1:1000) was 1%.
`CCCCCOC(=O)Nc1nc2ccccc2c2c1ncn2CC(C)C` [Compound 34, (1-Isobutyl-1H-imidazo[4,5-c]quinolin-4-yl)-carbamic acid pentyl ester] gave an Emax at 100 µM [1, 3] of 0%.
For `CCOC(=O)Nc1nc(-c2ccccc2)c(Br)c(=O)[nH]1` [Compound 36, (5-Bromo-6-oxo-4-phenyl-1,6-dihydro-pyrimidin-2-yl)-carbamic acid ethyl ester], the Emax at 100 µM [1, 4] was 0%.
`CCOc1nc(N)nc(-c2ccccc2)c1Br` [Compound 37, 5-Bromo-4-ethoxy-6-phenyl-pyrimidin-2-ylamine] was tested, and the Emax at 100 µM [1, 4] was 0%.
`C=CCn1c(=O)n([C@@H]2O[C@H](CO)[C@@H](O)[C@H]2O)c2nc(N)ncc21` [Compound 43, 7-Allyl-2-amino-9-β-D-ribofuranosyl-7,9-dihydro-purin-8-one] showed an Emax at 100 µM [1, 2] of 0%.
With `C=CCn1c(=O)n([C@@H]2O[C@H](CO)[C@@H](O)[C@H]2O)c2nc(N)nc(OCC)c21` [Compound 45, 7-Allyl-2-amino-6-ethoxy-9-β-D-ribofuranosyl-7,9-dihydro-purin-8-one] the Emax at 100 µM [1, 2] was 0%.
In the case of `Nc1ncc(Br)c(-c2ccccc2)n1` [Compound 48, 5-Bromo-4-phenyl-pyrimidin-2-ylamine], the Emax at 100 µM [1, 4] is reported as 0%.
`CCCCCOC(=O)Nc1nc(-c2ccccc2)c(Br)c(=O)[nH]1` [Compound 49, (5-Bromo-6-oxo-4-phenyl-1,6-dihydro-pyrimidin-2-yl)-carbamic acid pentyl ester] showed an Emax at 100 µM [1, 4] of 0%.
With `CCOC(=O)Nc1nc2ccccc2c2c1ncn2CC(C)C` [Compound 50, (1-Isobutyl-1H-imidazo[4,5-c]quinolin-4-yl)-carbamic acid ethyl ester] the Emax at 100 µM [1, 3] was 0%.
`CCOC(=O)Oc1nc2c(N)nc(OCCOC)nc2n1Cc1ccccc1` [Compound 51, Carbonic acid 6-amino-9-benzyl-2-(2-methoxy-ethoxy)-9H-purin-8-yl ester ethyl ester] was tested, and the Emax at 32 µM ([1]; Homo sapiens, PBMC, Table 14, 32 μM, 24 hours exposure, read-out: Amount of INFa relative to that induced by isatoribine at 100 μM) was 18%.
Work on `CCCCCOC(=O)Oc1nc2c(N)nc(OCCOC)nc2n1Cc1ccccc1` [Compound 54, Carbonic acid 6-amino-9-benzyl-2-(2-methoxy-ethoxy)-9H-purin-8-yl ester pentyl ester] yielded an Emax at 10 µM [1, 5] of 15%.
`COCCOc1nc(N)c2ncn(Cc3ccccc3)c2n1` [Compound 62, 9-Benzyl-2-(2-methoxy-ethoxy)-9H-purin-6-ylamine] showed an Emax at 0.1 µM ([1]; Homo sapiens, PBMC, Table 14, 0.1 μM, 24 hours exposure, read-out: Amount of INFa relative to that induced by isatoribine at 100 μM) of 0%.
`CCOc1nc2c(N)nc(OCCOC)nc2n1Cc1ccccc1` [Compound 64, 9-Benzyl-8-ethoxy-2-(2-methoxy-ethoxy)-9H-purin-6-ylamine] was tested, and the Emax at 10 µM [1, 5] was 0%.
Work on `COCCOc1nc(N)c2nc(OC)n(Cc3ccccc3)c2n1` [Compound 65, 9-Benzyl-8-methoxy-2-(2-methoxy-ethoxy)-9H-purin-6-ylamine] yielded an Emax at 100 µM ([1]; Homo sapiens, PBMC, Table 14, 100 μM, 24 hours exposure, read-out: Amount of INFa relative to that induced by isatoribine at 100 μM) of 0%.
For `C=CCn1c(=O)n([C@@H]2O[C@H](COC(=O)[C@@H](N)C(C)C)[C@@H](O)[C@H]2O)c2nc(N)[nH]c(=O)c21` [Compound 68, 7-Allyl-2-Amino-9-(5′-O-L-valinyl-β-D-ribofuranosyl)-7,9-dihydro-1H-purine-6,8-dione], the Emax at 100 µM [1, 2] was 0%.
`CCOc1nc(N)nc2c1sc(=O)n2[C@@H]1O[C@H](CO)[C@@H](O)[C@H]1O` [Compound 77, 5-Amino-7-ethoxy-3-β-D-ribofuranosyl-thiazolo[4,5-d]pyrimidin-2-one] gave an Emax at 100 µM [1, 6] of 0%.
In the case of `COc1nc(N)nc2c1sc(=O)n2[C@@H]1O[C@H](CO)[C@@H](O)[C@H]1O` [Compound 79, 5-Amino-7-methoxy-3-β-D-ribofuranosyl-thiazolo[4,5-d]pyrimidin-2-one], the Emax at 100 µM [1, 6] is reported as 0%.
`CCOC(=O)NCOc1nc(N)nc2c1sc(=O)n2[C@@H]1O[C@H](CO)[C@@H](O)[C@H]1O` [Compound 82, (5-Amino-2-oxo-3-β-D-ribofuranosyl-2,3-dihydro-thiazolo[4,5-d]pyrimidin-7-yloxymethyl)-carbamic acid ethyl ester] showed an Emax at 100 µM [1, 6] of 0%.
`CCOC(=O)N(C)COc1nc(N)nc2c1sc(=O)n2[C@@H]1O[C@H](CO)[C@@H](O)[C@H]1O` [Compound 84, (5-Amino-2-oxo-3-β-D-ribofuranosyl-2,3-dihydro-thiazolo[4,5-d]pyrimidin-7-yloxymethyl)-methyl-carbamic acid ethyl ester] was tested, and the Emax at 100 µM [1, 6] was 0%.
`CC(=O)OC[C@H]1O[C@@H](n2c(=O)sc3c(OCc4oc(=O)oc4C)nc(N)nc32)[C@H](OC(C)=O)[C@@H]1OC(C)=O` [Compound 85, 5-Amino-7-(5-methyl-2-oxo-[1,3]dioxol-4-ylmethoxy)-3-(2′,3′,5′-tri-O-acetyl-β-D-ribofuranosyl)-thiazolo[4,5-d]pyrimidin-2-one] showed an Emax at 100 µM [1, 6] of 0%.
In the case of “[2-Ethoxymethyl-1-(2-hydroxy-2-methyl-propyl)-1H-imidazo[4,5-c]quinolin-4-yl]-carbamic acid ethyl ester [Compound 39]”, the “Amount of INFa relative to that induced by isatoribine at 100 μM” value ([1]; Table 12, 1 μM, 24 hours exposure) is reported as 95 @ 1 μM %.
